Laboratory results as given in patent US20250049831A1, “ANTIVIRAL USE OF BISE[…], AND BISEPOXYLIGNAN COMPOSITION AND PREPARATION OF BISE[…]” (priority 2021, published 2025).

What follows are molecules tested on COVID-19 virus (assay: In-vitro antiviral CPE test in Vero E6 cells, COVID-19 virus).
Format: cell-based

Structure (SMILES) | COVID-19 virus SI
COc1cc(O)cc(C2OCC3C(c4ccc(OC5OC(CO)C(O)C(O)C5O)c(OC)c4)OCC23)c1 (stereo not shown) [compound 1] | 31.61
COc1ccc([C@H]2OC[C@H]3[C@@H]2CO[C@H]3c2ccc(O[C@@H]3O[C@H](CO)[C@@H](O)[C@H](O)[C@H]3O)c(OC)c2)cc1OC [compound 2] | 30.50
COc1ccc(C2OCC3C(c4ccc(OC)c(OC)c4)OCC23)cc1O (stereo not shown) [compound 3] | 5.33
COc1ccc(C2OCC3C(c4ccc(OC(=O)C(C)c5ccc(CC(C)C)cc5)c(OC)c4)OCC23)cc1OC (stereo not shown) [compound 6] | 4.72
